{"source": "paper PMC8229129", "about": "“Local Colonic Administration of a Serine Protease Inhibitor Improves Post-Inflammatory Visceral Hypersensitivity in Rats” (Pharmaceutics, 2021)", "key": {"pancreatic elastase": {"target": "pancreatic elastase (Homo sapiens, UniProt Q9UNI1)", "sequence (Q9UNI1 19-258)": "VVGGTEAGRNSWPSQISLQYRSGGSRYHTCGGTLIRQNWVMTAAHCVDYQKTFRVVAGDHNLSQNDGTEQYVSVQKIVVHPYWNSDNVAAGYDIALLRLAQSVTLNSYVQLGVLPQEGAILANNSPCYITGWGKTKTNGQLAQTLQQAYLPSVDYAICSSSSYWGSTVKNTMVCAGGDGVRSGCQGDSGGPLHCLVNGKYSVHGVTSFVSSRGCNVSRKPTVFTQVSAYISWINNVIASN", "test": "Inhibition of pancreatic elastase by UAMC-00050 (IC50)", "format": "biochemical", "details": "in vitro", "protocol": "Here, the potency of UAMC-00050 to inhibit two other serine proteases, chymotrypsin and pancreatic elastase, with specificity was determined."}, "[1]": {"system": "trypsin-like activity in colonic tissue", "test": "Trypsin-like activity in colonic tissue after intracolonic administration (fluorogenic substrates)", "format": "in vivo, Sprague–Dawley rats", "details": "post-colitis rats, 5 mg/kg intracolonic, colon harvested 90 min after administration, median (IQR), n = 12; vehicle 1.08 (1.19), p < 0.01", "protocol": "(§1) The serine protease inhibitor UAMC-00050 (0.1–1.0–2.5–5.0 mg/kg, dissolved in a volume of 200 µL) or its vehicle (5% DMSO in H2O) was delivered colonically using a flexible catheter (18 G, length 4.5 cm) under short-lasting isoflurane anesthesia (5.0% induction, 1.5% maintenance). To prevent expulsion of the enema, animals were held in a Trendelenburg position for 90 s. Doses for intracolonic administration were based on the doses known to be effective via an i.p. administration and adapted afterwards based on preliminary results.\n(§2) Trypsin-like, chymotrypsin-like, cathepsin G, elastase-like, and kallikrein activities were determined in colon tissue and fecal samples to profile serine protease activity. […]\n(§3) Boc-Gln-Ala-Arg-AMC (75 µM) and n-Tosyl-Gly-Pro-Arg-AMC (100 µM) in 50 mM Tris-HCl pH 8.0 containing 120 mM NaCl were used to measure the trypsin-like activity. […] The fluorescence was measured during 20 min at 37 °C on a Tecan Infinite F200 Pro microtiter plate reader. The other activities were assessed in a similar assay, using the substrates mentioned below. Chymotrypsin-like and kallikrein activity were measured with Suc-Ala-Ala-Pro-Phe-AMC (0.45 mM) and H-Pro-Phe-Arg-AMC (0.45 mM), respectively. Elastase-like activity was measured using two assays, one using Suc-Ala-Ala-Pro-Val-AMC as a substrate and the other using Suc-Ala-Ala-Ala-AMC (both 0.45 mM). […]"}, "[2]": {"system": "elastase-like, cathepsin G and kallikrein activities in colonic tissue", "test": "Other specific proteolytic activities in colonic tissue of post-colitis rats after intracolonic administration", "format": "in vivo, Sprague–Dawley rats", "details": "5 mg/kg intracolonic, 90 min", "protocol": "as §1, §2, §3"}, "uPA": {"system": "uPA", "set-up": "method as in PMID 29911328", "details": "in vitro; cited from earlier work"}, "plasmin": {"system": "plasmin", "set-up": "method as in PMID 29911328", "details": "in vitro; cited from earlier work"}, "cathepsin G": {"system": "cathepsin G", "set-up": "method as in PMID 29911328", "details": "in vitro; cited from earlier work"}, "kallikrein 2": {"system": "kallikrein 2", "set-up": "method as in PMID 29911328", "details": "in vitro; cited from earlier work"}, "neutrophil elastase": {"system": "neutrophil elastase", "set-up": "method as in PMID 29911328", "details": "in vitro; cited from earlier work"}, "chronic colitis": {"system": "chronic colitis", "set-up": "method as in doi:10.1016/S0016-5085(16)33277-2", "details": "murine CD4+CD25−CD62L+ T-cell transfer model for chronic colitis; cited from earlier work"}, "dry eye syndrome": {"system": "dry eye syndrome", "set-up": "method as in PMID 33057006", "details": "rat model of dry eye syndrome; cited from earlier work"}}}
{"smiles": "CC(=O)Nc1ccc(OP(=O)(Oc2ccc(NC(C)=O)cc2)C(Cc2ccc(N=C(N)N)cc2)NC(=O)OCc2ccccc2)cc1.Cl", "note": "(stereo not shown) [UAMC-00050]", "values": [{"measurement": "IC50", "setting": "pancreatic elastase", "value": "> 10", "unit": "µM"}, {"measurement": "Trypsin-like activity in colonic tissue (Tos-Gly-Pro-Arg-AMC)", "setting": "[1]", "value": "0.23 (0.18) U/g"}, {"measurement": "Effect on the other specific proteolytic activities (elastase-like, cathepsin G, kallikrein) in colonic tissue", "setting": "[2]", "value": "No effect"}, {"measurement": "inhibition of uPA", "setting": "uPA", "value": "efficiently inhibits"}, {"measurement": "inhibition of plasmin", "setting": "plasmin", "value": "efficiently inhibits"}, {"measurement": "inhibition of cathepsin G", "setting": "cathepsin G", "value": "efficiently inhibits"}, {"measurement": "inhibition of kallikrein 2", "setting": "kallikrein 2", "value": "efficiently inhibits"}, {"measurement": "inhibition of neutrophil elastase", "setting": "neutrophil elastase", "value": "did not efficiently inhibit"}, {"measurement": "Effect on inflammation", "setting": "chronic colitis", "value": "anti-inflammatory effects"}, {"measurement": "Effect on inflammation", "setting": "dry eye syndrome", "value": "anti-inflammatory effects"}]}
